In ChEMBL document CHEMBL4308841, “Synthesis, in vitro antiproliferative activity, and kinase inhibitory effects of pyrazole-containing diarylureas and diarylamides” (Eur J Med Chem, 2018):

What was measured:
[1] = test system: NCI-H522; experiment: Growth inhibition of human NCI-H522 cells assessed as cell growth at 10 uM incubated for 48 hrs by sulforhodamine B assay relative to control; assay type: functional; conditions: NCI-H522, 48 h, read-out: Activity
[2] = test system: HT-29; experiment: Growth inhibition of human HT-29 cells assessed as cell growth at 10 uM incubated for 48 hrs by sulforhodamine B assay relative to control; assay type: functional; conditions: HT-29, 48 h, read-out: Activity
[3] = test system: SK-MEL-2; experiment: Growth inhibition of human SK-MEL-2 cells assessed as cell growth at 10 uM incubated for 48 hrs by sulforhodamine B assay relative to control; assay type: functional; conditions: SK-MEL-2, 48 h, read-out: Activity
[4] = test system: NCI-H226; experiment: Growth inhibition of human NCI-H226 cells incubated for 48 hrs by sulforhodamine B assay; assay type: functional, cell-based; conditions: NCI-H226, 48 h
[5] = test system: SW-620; experiment: Growth inhibition of human SW620 cells incubated for 48 hrs by sulforhodamine B assay; assay type: functional, cell-based; conditions: SW-620, 48 h
[6] = test system: CCRF-CEM; experiment: Growth inhibition of human CCRF-CEM cells assessed as cell growth at 0.01 uM incubated for 48 hrs by sulforhodamine B assay relative to control; assay type: functional; conditions: read-out: Activity
[7] = test system: SF-268; experiment: Growth inhibition of human SF268 cells assessed as cell growth at 0.01 uM incubated for 48 hrs by sulforhodamine B assay relative to control; assay type: functional; conditions: SF-268, 48 h, read-out: Activity
[8] = test system: SF-539; experiment: Growth inhibition of human SF539 cells assessed as cell growth at 0.01 uM incubated for 48 hrs by sulforhodamine B assay relative to control; assay type: functional; conditions: SF-539, 48 h, read-out: Activity
[9] = test system: UACC-257; experiment: Growth inhibition of human UACC257 cells assessed as cell growth at 0.01 uM incubated for 48 hrs by sulforhodamine B assay relative to control; assay type: functional; conditions: UACC-257, 48 h, read-out: Activity
[10] = test system: RXF 393; experiment: Growth inhibition of human RXF393 cells assessed as cell growth at 0.01 uM incubated for 48 hrs by sulforhodamine B assay relative to control; assay type: functional; conditions: RXF 393, 48 h, read-out: Activity
[11] = test system: PC-3; experiment: Growth inhibition of human PC3 cells assessed as cell growth at 0.01 uM incubated for 48 hrs by sulforhodamine B assay relative to control; assay type: functional; conditions: PC-3, 48 h, read-out: Activity
[12] = test system: MDA-MB-468; experiment: Growth inhibition of human MDA-MB-468 cells assessed as cell growth at 0.01 uM incubated for 48 hrs by sulforhodamine B assay relative to control; assay type: functional; conditions: MDA-MB-468, 48 h, read-out: Activity
[13] = test system: CCRF-CEM; experiment: Growth inhibition of human CCRF-CEM cells assessed as cell growth at 0.1 uM incubated for 48 hrs by sulforhodamine B assay relative to control; assay type: functional; conditions: read-out: Activity
[14] = test system: NCI-H460; experiment: Growth inhibition of human NCI-H460 cells assessed as cell growth at 0.1 uM incubated for 48 hrs by sulforhodamine B assay relative to control; assay type: functional; conditions: NCI-H460, 48 h, read-out: Activity
[15] = test system: NCI-H522; experiment: Growth inhibition of human NCI-H522 cells assessed as cell growth at 0.1 uM incubated for 48 hrs by sulforhodamine B assay relative to control; assay type: functional; conditions: NCI-H522, 48 h, read-out: Activity
[16] = test system: HCT-15; experiment: Growth inhibition of human HCT15 cells assessed as cell growth at 0.1 uM incubated for 48 hrs by sulforhodamine B assay relative to control; assay type: functional; conditions: HCT-15, 48 h, read-out: Activity
[17] = test system: HT-29; experiment: Growth inhibition of human HT-29 cells assessed as cell growth at 0.1 uM incubated for 48 hrs by sulforhodamine B assay relative to control; assay type: functional; conditions: HT-29, 48 h, read-out: Activity
[18] = test system: KM12; experiment: Growth inhibition of human KM12 cells assessed as cell growth at 0.1 uM incubated for 48 hrs by sulforhodamine B assay relative to control; assay type: functional; conditions: KM12, 48 h, read-out: Activity
[19] = test system: SK-MEL-5; experiment: Growth inhibition of human SK-MEL-5 cells assessed as cell growth at 0.1 uM incubated for 48 hrs by sulforhodamine B assay relative to control; assay type: functional; conditions: SK-MEL-5, 48 h, read-out: Activity
[20] = test system: CCRF-CEM; experiment: Growth inhibition of human CCRF-CEM cells assessed as cell growth at 1 uM incubated for 48 hrs by sulforhodamine B assay relative to control; assay type: functional; conditions: read-out: Activity
[21] = test system: HL-60(TB); experiment: Growth inhibition of human HL-60(TB) cells assessed as cell growth at 1 uM incubated for 48 hrs by sulforhodamine B assay relative to control; assay type: functional; conditions: HL-60, 48 h, read-out: Activity
[22] = test system: MOLT-4; experiment: Growth inhibition of human MOLT4 cells assessed as cell growth at 1 uM incubated for 48 hrs by sulforhodamine B assay relative to control; assay type: functional; conditions: MOLT-4, 48 h, read-out: Activity
[23] = test system: HCC 2998; experiment: Growth inhibition of human HCC2998 cells assessed as cell growth at 1 uM incubated for 48 hrs by sulforhodamine B assay relative to control; assay type: functional; conditions: HCC 2998, 48 h, read-out: Activity
[24] = test system: A498; experiment: Growth inhibition of human A498 cells assessed as cell growth at 1 uM incubated for 48 hrs by sulforhodamine B assay relative to control; assay type: functional; conditions: A498, 48 h, read-out: Activity
[25] = test system: SR; experiment: Growth inhibition of human SR cells assessed as cell growth at 100 uM incubated for 48 hrs by sulforhodamine B assay relative to control; assay type: functional; conditions: read-out: Activity
[26] = test system: SNB-75; experiment: Growth inhibition of human SNB75 cells assessed as cell growth at 100 uM incubated for 48 hrs by sulforhodamine B assay relative to control; assay type: functional; conditions: SNB-75, 48 h, read-out: Activity
[27] = test system: UACC-62; experiment: Growth inhibition of human UACC62 cells assessed as cell growth at 100 uM incubated for 48 hrs by sulforhodamine B assay relative to control; assay type: functional; conditions: UACC-62, 48 h, read-out: Activity
[28] = test system: OVCAR-4; experiment: Growth inhibition of human OVCAR4 cells assessed as cell growth at 100 uM incubated for 48 hrs by sulforhodamine B assay relative to control; assay type: functional; conditions: OVCAR-4, 48 h, read-out: Activity
[29] = test system: OVCAR-8; experiment: Growth inhibition of human OVCAR8 cells assessed as cell growth at 100 uM incubated for 48 hrs by sulforhodamine B assay relative to control; assay type: functional; conditions: OVCAR-8, 48 h, read-out: Activity
[30] = test system: SK-OV-3; experiment: Growth inhibition of human SKOV3 cells assessed as cell growth at 100 uM incubated for 48 hrs by sulforhodamine B assay relative to control; assay type: functional; conditions: SK-OV-3, 48 h, read-out: Activity
[31] = test system: A498; experiment: Growth inhibition of human A498 cells assessed as cell growth at 100 uM incubated for 48 hrs by sulforhodamine B assay relative to control; assay type: functional; conditions: A498, 48 h, read-out: Activity
[32] = test system: SN12C; experiment: Growth inhibition of human SN12C cells assessed as cell growth at 100 uM incubated for 48 hrs by sulforhodamine B assay relative to control; assay type: functional; conditions: read-out: Activity

In the case of `COc1cc(Cl)cc(-c2nn(-c3cccc(NC(=O)Nc4cc(C(F)(F)F)cc(C(F)(F)F)c4)c3)cc2-c2ccncc2)c1`, the growth at 10 µM [1] is reported as -15.6%, the growth at 10 µM [2] is reported as 3.93% and the growth at 10 µM [3] is reported as -38.1%. The IC50 [4] was 0.7 µM, the GI50 ([4]; read-out: GI50) was 0.704 µM and the LC50 ([4]; read-out: LC50) was greater than 100 µM. The TGI ([4]; read-out: TGI) was 5.17 µM, the GI50 ([4]; read-out: pGI50 (converted)) was 0.708 µM and the LC50 ([4]; read-out: pLC50 (converted)) was greater than 100 µM. The TGI ([4]; read-out: pTGI (converted)) was 5.13 µM, the IC50 [5] was 0.39 µM and the GI50 ([5]; read-out: GI50) was 0.3 µM. For the same molecule, the LC50 ([5]; read-out: LC50) was 0.015 µM, the TGI ([5]; read-out: TGI) was 2 µM and the GI50 ([5]; read-out: pGI50 (converted)) was 0.389 µM. For the same molecule, the LC50 ([5]; read-out: pLC50 (converted)) was 15.1 µM, the TGI ([5]; read-out: pTGI (converted)) was 2 µM and the growth at 0.01 µM [6] was 87%. For the same molecule, the growth at 0.01 µM [7] was 97%, the growth at 0.01 µM [8] was 100% and the growth at 0.01 µM [9] was 96%. For the same molecule, the growth at 0.01 µM [10] was 96%, the growth at 0.01 µM [11] was 101% and the growth at 0.01 µM [12] was 97%. It also gave a growth at 0.1 µM [13] of 84%, a growth at 0.1 µM [14] of 101% and a growth at 0.1 µM [15] of 80%. For the same molecule, the growth at 0.1 µM [16] was 90%, the growth at 0.1 µM [17] was 101% and the growth at 0.1 µM [18] was 98%. The growth at 0.1 µM [19] was 97%, the growth at 1 µM [20] was 5% and the growth at 1 µM [21] was 14%. For the same molecule, the growth at 1 µM [22] was 10%, the growth at 1 µM [23] was 38% and the growth at 1 µM [24] was 37%. The growth at 100 µM [25] was -8%, the growth at 100 µM [26] was -58% and the growth at 100 µM [27] was -71%. The growth at 100 µM [28] was -22%, the growth at 100 µM [29] was -62% and the growth at 100 µM [30] was -73%. The growth at 100 µM [31] was -59% and the growth at 100 µM [32] was -61%.
